From ChEMBL document CHEMBL1201862, “PubChem BioAssay data set” (2004)
Structures can show the parent of a compound that is named as a salt.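 Method: 48-hour compound exposure of cells in 96-well plates, five concentrations, linear interpolation of endpoints. Abbreviation: GI50, concentration required for 50% inhibition of growth.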 Calls of active or inactive are those of the source. Rule as the data show it: active = GI50 up to about 1.1 µM and inactive = higher.

Tests used:
Experiment in all cases: NCI anticancer screen, dose series, 48 h
SF-539 = test system: SF-539
M14 = test system: M14
EKVX = test system: EKVX
SR = test system: SR
DU-145 = test system: DU-145
HCT-15 = test system: HCT-15
MOLT-4 = test system: MOLT-4
A549 = test system: A549
U-251 = test system: U-251
Hs-578T = test system: Hs-578T
UACC-257 = test system: UACC-257
NCI-H522 = test system: NCI-H522
SK-MEL-5 = test system: SK-MEL-5
RPMI-8226 = test system: RPMI-8226
LOX IMVI = test system: LOX IMVI
SNB-19 = test system: SNB-19
MDA-N = test system: MDA-N
HT-29 = test system: HT-29
OVCAR-4 = test system: OVCAR-4
NCI-H460 = test system: NCI-H460

Row | SMILES | GI50 (SF-539) | GI50 (M14) | GI50 (EKVX) | GI50 (SR) | GI50 (DU-145) | GI50 (HCT-15) [µM] | GI50 (MOLT-4) | GI50 (A549) | GI50 (U-251) | GI50 (Hs-578T) | GI50 (UACC-257) | GI50 (NCI-H522) | GI50 (SK-MEL-5) | GI50 (RPMI-8226) | GI50 (LOX IMVI) | GI50 (SNB-19) | GI50 (MDA-N) | GI50 (HT-29) | GI50 (OVCAR-4) | GI50 (NCI-H460)
1 | CCOC(=O)C(NC(=O)CC)(Nc1ccc(S(=O)(=O)Nc2ccc(OC)nn2)cc1)C(F)(F)F (stereo not given) | > 100 µM (inactive) | > 100 µM (inactive) | > 100 µM (inactive) | > 100 µM (inactive) | > 100 µM (inactive) | > 100 | > 100 µM (inactive) | > 100 µM (inactive) | > 100 µM (inactive) | > 100 µM (inactive) | > 100 µM (inactive) | > 100 µM (inactive) | > 100 µM (inactive) | > 100 µM (inactive) | > 100 µM (inactive) | > 100 µM (inactive) | > 100 µM (inactive) | > 100 µM (inactive) | > 100 µM (inactive) | > 100 µM (inactive)
2 | CC(C)=CCc1cc(C2COc3cc4c(c(O)c3C2=O)C=CC(C)(C)O4)c(O)cc1O (stereo not given) | 16.5 µM (inactive) | 13.4 µM (inactive) | 12.7 µM (inactive) | 6.78 µM (inactive) | 14.5 µM (inactive) | 13.7 | 5.61 µM (inactive) | 12.7 µM (inactive) | 16 µM (inactive) | 17.8 µM (inactive) | 12.8 µM (inactive) | 11.6 µM (inactive) | 11.3 µM (inactive) | 6.43 µM (inactive) | 17.7 µM (inactive) | 19.3 µM (inactive) | 14.4 µM (inactive) | 16.6 µM (inactive) | 10.6 µM (inactive) | 14.3 µM (inactive)
3 | CCOC(=O)C1C(c2ccc(OC)cc2)c2c(n[nH]c2O)CC1(O)OCC (stereo not given) | > 100 µM (inactive) | > 100 µM (inactive) | > 100 µM (inactive) | > 100 µM (inactive) | > 100 µM (inactive) | > 100 | > 100 µM (inactive) | > 100 µM (inactive) | > 100 µM (inactive) | > 100 µM (inactive) | > 100 µM (inactive) | > 100 µM (inactive) | > 100 µM (inactive) | > 100 µM (inactive) | > 100 µM (inactive) | > 100 µM (inactive) | > 100 µM (inactive) | > 100 µM (inactive) | > 100 µM (inactive) | > 100 µM (inactive)
4 | C=CCNC1=C2C[C@@H](C)C[C@@H](OC)[C@H](OC(=O)CCN(C)C)[C@H](C)/C=C(\C)[C@@H](OC(N)=O)[C@H](OC)/C=C\C=C(/C)C(=O)NC(=CC1=O)C2=O | 0.0562 µM (active) | 0.0622 µM (active) | 1.35 µM (inactive) | 0.0204 µM (active) | 0.993 µM (active) | 0.535 | 1.53 µM (inactive) | 0.0559 µM (active) | 0.203 µM (active) | 12.1 µM (inactive) | 0.0914 µM (active) | 0.125 µM (active) | 0.0508 µM (active) | 1.15 µM (inactive) | 0.0993 µM (active) | 1.17 µM (inactive) | 0.0386 µM (active) | < 0.01 µM (active) | 3.97 µM (inactive) | 0.0627 µM (active)
5 | Cc1ccc(-c2n[nH]c(=O)[nH]2)cc1[N+](=O)[O-] | > 100 µM (inactive) | > 100 µM (inactive) | 0.643 µM (active) | > 100 µM (inactive) | > 100 µM (inactive) | > 100 | > 100 µM (inactive) | > 100 µM (inactive) | > 100 µM (inactive) | 3.01 µM (inactive) | > 100 µM (inactive) | > 100 µM (inactive) | > 100 µM (inactive) | > 100 µM (inactive) | > 100 µM (inactive) | > 100 µM (inactive) | > 100 µM (inactive) | > 100 µM (inactive) | > 100 µM (inactive) | > 100 µM (inactive)
6 | Cc1c(C)c(CC(=O)N2CC2)c(C)c(C)c1CC(=O)N1CC1 | 3.52 µM (inactive) | 5.25 µM (inactive) | 23.2 µM (inactive) | 0.33 µM (active) | 2.1 µM (inactive) | 16.8 | 0.441 µM (active) | 7.28 µM (inactive) | 5.56 µM (inactive) | 30.3 µM (inactive) | 17.6 µM (inactive) | 9.02 µM (inactive) | > 10 µM (inactive) | 10.6 µM (inactive) | 5.19 µM (inactive) | 10.6 µM (inactive) | 13.8 µM (inactive) | 6.93 µM (inactive) | 19.1 µM (inactive) | 0.337 µM (active)
7 | COc1c(OC(C)=O)c(OC(C)=O)cc2c1-c1ccc(SC)c(=O)cc1C(NC(C)=O)CC2 (stereo not given) | 0.254 µM (active) | 0.698 µM (active) | 36.1 µM (inactive) | 0.448 µM (active) | 0.583 µM (active) | 9.77 | 0.968 µM (active) | 4.19 µM (inactive) | 0.601 µM (active) | 0.22 µM (active) | 3.72 µM (inactive) | 0.204 µM (active) | 0.184 µM (active) | 0.416 µM (active) | 1.81 µM (inactive) | 0.42 µM (active) | 0.163 µM (active) | 0.461 µM (active) | 26 µM (inactive) | 2.9 µM (inactive)
8 | O=c1c2ccccc2[nH]c(=S)n1-c1ccc(/N=N/c2cccc3c(O)cccc23)cc1 | > 100 µM (inactive) | 50.8 µM (inactive) | > 100 µM (inactive) | 74.5 µM (inactive) | > 100 µM (inactive) | 38.5 | 45.3 µM (inactive) | > 100 µM (inactive) | 87.5 µM (inactive) | > 100 µM (inactive) | 50.9 µM (inactive) | > 100 µM (inactive) | 24.9 µM (inactive) | 65.3 µM (inactive) | 39 µM (inactive) | > 100 µM (inactive) | 34.4 µM (inactive) | > 100 µM (inactive) | > 100 µM (inactive) | > 100 µM (inactive)
9 | CC(C)C[C@H]1C(=O)N2CCC[C@H]2[C@]2(O)O[C@](NC(=O)[C@@H]3C=C4c5cccc6[nH]c(Br)c(c56)C[C@H]4N(C)C3)(C(C)C)C(=O)N12 [BROMOCRIPTINE MESYLATE] | > 100 µM (inactive) | 61.1 µM (inactive) | 4.74 µM (inactive) | 6.11 µM (inactive) | > 100 µM (inactive) | 8.67 | 4.34 µM (inactive) | 6.98 µM (inactive) | 35.8 µM (inactive) | 25.2 µM (inactive) | 49.5 µM (inactive) | 34 µM (inactive) | 21.7 µM (inactive) | 3.8 µM (inactive) | > 100 µM (inactive) | > 100 µM (inactive) | 69.8 µM (inactive) | 13.6 µM (inactive) | > 100 µM (inactive) | 10.8 µM (inactive)
